Source: BindingDB's records for doi:10.1016/j.ejmech.2018.02.025 (Chia Tai Tianqing Pharmaceutical Group, 2018)
pEC50: −log10 of the molar value.

Assays:
[1] = Inhibition of NS5A in HCV genotype 1a infected in human HuH7 replicon cells assessed as reduction in viral replication after 3 days by luciferase reporter gene assay
[2] = Inhibition of NS5A in HCV genotype 1b infected in human HuH7 replicon cells assessed as reduction in viral replication after 3 days by luciferase reporter gene assay
[3] = Inhibition of NS5A in HCV genotype 2a JFH-1 infected in human Huh7.5.1 cells assessed as reduction in viral replication after 3 days by luciferase reporter gene assay
[4] = Inhibition of NS5A in HCV genotype 6a infected in human HuH7 replicon cells expressing HCV genotype 1b chimeric replicon assessed as reduction in viral replication after 3 days by luciferase reporter gene assay
[5] = Inhibition of NS5A in HCV genotype 3a infected in human HuH7 replicon cells expressing HCV genotype 1b chimeric replicon assessed as reduction in viral replication after 3 days by luciferase reporter gene assay
[6] = Inhibition of NS5A in HCV genotype 5a infected in human HuH7 replicon cells expressing HCV genotype 1b chimeric replicon assessed as reduction in viral replication after 3 days by luciferase reporter gene assay

For `COC(=O)N[C@H](C(=O)N1CCC[C@H]1C(=O)Nc1ccc([C@H]2CC[C@H](c3ccc(NC(=O)[C@@H]4CCCN4C(=O)[C@@H](NC(=O)OC)C(C)C)cc3)N2c2ccc([Si](C)(C)C)cc2)cc1)C(C)C`, the pEC50 [1] was 9.93 and the pEC50 [2] was 11.15.

Work on `CC[Si](CC)(CC)c1ccc(N2[C@@H](c3ccc(NC(=O)[C@@H]4CCCN4C(=O)[C@@H](NC(=O)OC)C(C)C)cc3)CC[C@@H]2c2ccc(NC(=O)[C@@H]3CCCN3C(=O)[C@@H](NC(=O)OC)C(C)C)cc2)cc1` yielded a pEC50 [1] of 10.39 and a pEC50 [2] of 11.22.

`COC(=O)N[C@H](C(=O)N1CCC[C@H]1C(=O)Nc1ccc([C@@H]2CC[C@@H](c3ccc(NC(=O)[C@@H]4CCCN4C(=O)[C@@H](NC(=O)OC)C(C)C)cc3)N2c2ccc(C(C)(C)C)cc2)cc1)C(C)C` [CHEBI:85183] gave a pEC50 [3] of 11.59, a pEC50 [4] of 8.47 and a pEC50 [5] of 10.07. The pEC50 [6] was 11.40, the pEC50 [1] was 10.52 and the pEC50 [2] was 11.30.

`COC(=O)N[C@H](C(=O)N1CCC[C@H]1C(=O)Nc1ccc([C@@H]2CC[C@@H](c3ccc(NC(=O)[C@@H]4CCCN4C(=O)[C@@H](NC(=O)OC)C(C)C)cc3)N2c2ccc([Si](C)(C)C)cc2)cc1)C(C)C` showed a pEC50 [3] of 11.60, a pEC50 [4] of 8.85 and a pEC50 [5] of 10.42. The pEC50 [6] was 12.00, the pEC50 [1] was 10.85 and the pEC50 [2] was 11.40.

In the case of `COC(=O)N[C@H](C(=O)N1CCC[C@H]1C(=O)Nc1ccc([C@@H]2CC[C@@H](c3ccc(NC(=O)[C@@H]4CCCN4C(=O)[C@@H](NC(=O)OC)C(C)C)cc3)N2c2ccc([Si](C)(C)C(C)(C)C)cc2)cc1)C(C)C`, the pEC50 [3] was 11.96, the pEC50 [4] was 9.03 and the pEC50 [5] was 10.92. For the same compound, the pEC50 [6] was 12.00, the pEC50 [1] was 10.96 and the pEC50 [2] was 11.52.

In the case of `CC[Si](CC)(CC)c1ccc(N2[C@@H](c3ccc(NC(=O)[C@@H]4CCCN4C(=O)[C@@H](NC(=O)OC)C(C)C)cc3)CC[C@H]2c2ccc(NC(=O)[C@@H]3CCCN3C(=O)[C@@H](NC(=O)OC)C(C)C)cc2)cc1`, the pEC50 [1] was < 9.30 and the pEC50 [2] was 11.15.

In the case of `CC[Si](CC)(CC)c1ccc(N2[C@H](c3ccc(NC(=O)[C@@H]4CCCN4C(=O)[C@@H](NC(=O)OC)C(C)C)cc3)CC[C@H]2c2ccc(NC(=O)[C@@H]3CCCN3C(=O)[C@@H](NC(=O)OC)C(C)C)cc2)cc1`, the pEC50 [4] was 9.35, the pEC50 [5] was 11.00 and the pEC50 [6] was 12.00. The pEC50 [1] was 11.15 and the pEC50 [2] was 11.52.

With `COC(=O)N[C@H](C(=O)N1CCC[C@H]1C(=O)Nc1ccc([C@H]2CC[C@@H](c3ccc(NC(=O)[C@@H]4CCCN4C(=O)[C@@H](NC(=O)OC)C(C)C)cc3)N2c2ccc([Si](C)(C)C)cc2)cc1)C(C)C` the pEC50 [1] was < 9.30 and the pEC50 [2] was 11.10.
